The record followed here is PubChem BioAssay (NCI).

Some test systems named below: BT-549 breast; HCC-2998 colon; SR leukemia; UACC-257 melanoma; SF-268 CNS; ACHN renal; SK-OV-3 ovarian; UACC-62 melanoma; MALME-3M melanoma; RXF 393 renal.
Common to all, as to assay: NCI anticancer screen, dose series, 48 h

SMILES strings stand for the structures.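 Briefly, cells in 96-well plates were exposed to five compound concentrations for 48 h, and endpoints were estimated by linear interpolation. GI50 is the concentration that inhibits growth by half. TGI is the concentration that stops growth completely.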

For `CCOC(=O)[C@@H](C)C[C@H](Cc1ccccc1)NC(=O)c1csc([C@@H](C[C@H](C(C)C)N(C)C(=O)[C@@H](NC(=O)[C@H]2CCCCN2C)C(C)(C)CC)OC(C)=O)n1`, the GI50 was under 0.00167 µM in the test on BT-549 breast; under 0.00167 µM in the test with HCC-2998 colon; under 0.00167 µM in the test on SR leukemia; 0.0442 µM in the test with UACC-257 melanoma; 0.00278 µM in the test with SF-268 CNS; 0.00225 µM in the test on ACHN renal. The GI50 with SK-OV-3 ovarian, with UACC-62 melanoma and in the test with MALME-3M melanoma was under 0.00167 µM in each case. The TGI was 0.107 µM in the test with BT-549 breast; 2.77 µM in the test on HCC-2998 colon; 3.39 µM in the test with SR leukemia; over 16.7 µM in the test with UACC-257 melanoma; over 12.8 µM in the test on SF-268 CNS; over 14.1 µM with ACHN renal. The TGI in the test on SK-OV-3 ovarian is over 16.7 µM; in the test with UACC-62 melanoma, over 16.7 µM; in the test with MALME-3M melanoma, 3.68 µM.
As for `CCOC(=O)C(C)(NC(=O)c1ccc(NCc2ccc3nc(NC(=O)c4ccccc4)nc(NC(=O)c4ccccc4)c3c2)cc1)C(=O)OCC`, the TGI in the test on HCC-2998 colon is 69.7 µM; with RXF 393 renal, 7.92 µM; with SR leukemia, over 100 µM; in the test with UACC-257 melanoma it was 36.4 µM; with SF-268 CNS it was 28.7 µM; in the test on ACHN renal, 23.6 µM. In addition, the figures for the TGI with SK-OV-3 ovarian, with UACC-62 melanoma and in the test on MALME-3M melanoma were 27.4 µM, 22.1 µM and 38 µM, respectively.
With `COc1cc2cc(Oc3ccc(NC(=O)Nc4cc(C(F)(F)F)cc(C(F)(F)F)c4)cc3)c(C)nc2cc1OCCN1CCOCC1`, the GI50 with BT-549 breast is 1.87 µM; in the test with HCC-2998 colon it was 2.09 µM; with RXF 393 renal it was 1.12 µM; with UACC-257 melanoma it was 1.4 µM; with SF-268 CNS it was 1.98 µM; with ACHN renal, 1.53 µM. Besides, the GI50 with SK-OV-3 ovarian is 2.09 µM; with UACC-62 melanoma, 1.67 µM; in the test with MALME-3M melanoma, 1.2 µM. Also, the TGI turned out to be 7.35 µM with BT-549 breast; 6.97 µM in the test with HCC-2998 colon; 2.99 µM in the test with RXF 393 renal; 4.24 µM in the test on UACC-257 melanoma; 8.06 µM in the test with SF-268 CNS; 5.42 µM with ACHN renal. Moreover, the TGI in the test on SK-OV-3 ovarian was determined as 8.5 µM; in the test with UACC-62 melanoma, 6.9 µM; in the test with MALME-3M melanoma, 3.79 µM.
Take `CC(C)(CN1C(=O)C(Cl)=C(Cl)C1=O)CN1C(=O)C(Cl)=C(Cl)C1=O`: the TGI in the test with HCC-2998 colon is 39.4 µM; in the test with RXF 393 renal, 14.4 µM; in the test on SR leukemia, 36 µM; in the test with UACC-257 melanoma, 29 µM; in the test with SF-268 CNS, 41.5 µM; in the test with ACHN renal, 21.7 µM. Also, the TGI in the test with SK-OV-3 ovarian is over 58.9 µM; in the test with UACC-62 melanoma, 29.5 µM; in the test with MALME-3M melanoma it was 16.7 µM.
Consider `O=C(CS(=O)(=O)c1nc2ccccc2nc1-c1ccccc1)Nc1ccc(F)cc1`, for which the GI50 with BT-549 breast is 29.1 µM; in the test on HCC-2998 colon it was 13.3 µM; with RXF 393 renal, over 100 µM; in the test on UACC-257 melanoma, over 100 µM; in the test on SF-268 CNS, 91.8 µM; in the test on ACHN renal, over 100 µM. Moreover, the GI50 with SK-OV-3 ovarian is over 100 µM; with UACC-62 melanoma, 40.1 µM; in the test on MALME-3M melanoma it was 80.7 µM. The TGI in the test on BT-549 breast is over 100 µM; with HCC-2998 colon, 26.9 µM; in the test on RXF 393 renal it was over 100 µM; in the test on UACC-257 melanoma, over 100 µM; with SF-268 CNS, over 100 µM; with ACHN renal, over 100 µM. In addition, the TGI in the test on SK-OV-3 ovarian, in the test on UACC-62 melanoma and in the test on MALME-3M melanoma was over 100 µM each time.
`CCN(CC)c1ccc(/C=C/C(=O)c2ccc(Nc3nc(Nc4ccccc4)nc(Nc4ccccc4)n3)cc2)cc1`: the GI50 in the test on BT-549 breast was 3.98 µM; in the test with RXF 393 renal, 2.97 µM; with SR leukemia, 1.03 µM; in the test on UACC-257 melanoma it was 20.4 µM; with SF-268 CNS, 8.51 µM; in the test on ACHN renal it was 6.1 µM. Also, the GI50 is 10.6 µM in the test on SK-OV-3 ovarian, 57.4 µM in the test with UACC-62 melanoma and 9.52 µM in the test with MALME-3M melanoma. For the same molecule, the TGI is 28.1 µM in the test with BT-549 breast; 16.8 µM in the test on RXF 393 renal; 3.86 µM with SR leukemia; over 100 µM with UACC-257 melanoma; 47.2 µM in the test with SF-268 CNS; over 100 µM in the test with ACHN renal. The TGI with SK-OV-3 ovarian, in the test with UACC-62 melanoma and with MALME-3M melanoma was over 100 µM throughout.
For the molecule `CCOC(=O)c1c(-c2ccccc2)[n+](=O)c2cc(Cl)c(Cl)cc2n1[O-]`, the GI50 was 17.3 µM in the test on BT-549 breast; 6.59 µM with RXF 393 renal; 0.529 µM in the test with SR leukemia; 2.61 µM with UACC-257 melanoma; 16.6 µM in the test on SF-268 CNS; 11.9 µM in the test with ACHN renal. The GI50 with SK-OV-3 ovarian was 18.5 µM; in the test on UACC-62 melanoma, 5.11 µM. Besides, the TGI in the test on BT-549 breast was 33.5 µM; in the test on RXF 393 renal it was 22.9 µM; in the test on SR leukemia it was over 100 µM; with UACC-257 melanoma, 8.41 µM; in the test on SF-268 CNS, 33.9 µM; with ACHN renal, 24.2 µM. Also, the TGI was determined as 33.6 µM in the test on SK-OV-3 ovarian and 22.6 µM in the test with UACC-62 melanoma.
On to `CCOC(=O)CSc1cc(Cl)c(C)cc1S(=O)(=O)/N=C(/N=C/c1ccc([N+](=O)[O-])s1)NNC`, for which the GI50 was 20.5 µM with BT-549 breast; 22 µM in the test on RXF 393 renal; 28.7 µM with UACC-257 melanoma; 29.8 µM with SF-268 CNS; 17 µM in the test on ACHN renal; 24.3 µM with SK-OV-3 ovarian. In addition, the GI50 with UACC-62 melanoma was 14.1 µM; in the test with MALME-3M melanoma, 19.9 µM. Besides, the TGI in the test on BT-549 breast was 46.3 µM; in the test with RXF 393 renal, over 100 µM; in the test with UACC-257 melanoma it was 67.2 µM; in the test on SF-268 CNS, over 100 µM; in the test on ACHN renal, 39.9 µM; in the test with SK-OV-3 ovarian it was 67.1 µM. For the same molecule, the TGI is 30.8 µM in the test on UACC-62 melanoma and 55.3 µM in the test with MALME-3M melanoma.
With `COc1cc([N+](=O)[O-])c(OC)cc1-c1nc2sc(C)c(C)n2c1/C(N)=N/C(=N)N`, the GI50 was over 100 µM with BT-549 breast; over 100 µM with HCC-2998 colon; over 100 µM in the test on RXF 393 renal; 1.02 µM with UACC-257 melanoma; over 100 µM in the test with ACHN renal. The TGI in the test on BT-549 breast, with HCC-2998 colon, in the test on RXF 393 renal, with UACC-257 melanoma and with ACHN renal was over 100 µM each time.
